Results on four compounds are retold here after ChEMBL document CHEMBL1148513, “Synthetic studies of neoclerodane diterpenes from Salvia divinorum: selective modification of the furan ring” (Bioorg Med Chem Lett, 2006).

The target in experiment [1] is Delta-type opioid receptor (Homo sapiens, UniProt P41143). The experiment can be described thus: Displacement of [125I]IOXY from human delta opioid receptor. (In general: Displacement assays read how much labelled ligand stays bound in the presence of the test substance.)
Sequence of Delta-type opioid receptor (P41143 whole entry): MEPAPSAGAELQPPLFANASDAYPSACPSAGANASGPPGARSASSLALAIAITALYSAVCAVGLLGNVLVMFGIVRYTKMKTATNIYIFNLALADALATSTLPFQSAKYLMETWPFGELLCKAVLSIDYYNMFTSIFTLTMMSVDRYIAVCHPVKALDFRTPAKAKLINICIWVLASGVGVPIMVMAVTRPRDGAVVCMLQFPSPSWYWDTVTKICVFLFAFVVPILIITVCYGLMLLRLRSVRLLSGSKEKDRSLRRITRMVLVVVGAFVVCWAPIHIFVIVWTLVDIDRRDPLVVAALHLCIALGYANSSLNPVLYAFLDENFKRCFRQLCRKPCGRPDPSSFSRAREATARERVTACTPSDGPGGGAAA
Experiment [2] has as its target T1, Kappa-type opioid receptor (Homo sapiens, UniProt P41145). The experiment can be described thus: Displacement of [125I]IOXY from human kappa opioid receptor.
The target in the next experiment is Mu-type opioid receptor (Homo sapiens, UniProt P35372). The experiment can be described thus: Displacement of [125I]IOXY from human mu opioid receptor.
Sequence of Mu-type opioid receptor (P35372 whole entry): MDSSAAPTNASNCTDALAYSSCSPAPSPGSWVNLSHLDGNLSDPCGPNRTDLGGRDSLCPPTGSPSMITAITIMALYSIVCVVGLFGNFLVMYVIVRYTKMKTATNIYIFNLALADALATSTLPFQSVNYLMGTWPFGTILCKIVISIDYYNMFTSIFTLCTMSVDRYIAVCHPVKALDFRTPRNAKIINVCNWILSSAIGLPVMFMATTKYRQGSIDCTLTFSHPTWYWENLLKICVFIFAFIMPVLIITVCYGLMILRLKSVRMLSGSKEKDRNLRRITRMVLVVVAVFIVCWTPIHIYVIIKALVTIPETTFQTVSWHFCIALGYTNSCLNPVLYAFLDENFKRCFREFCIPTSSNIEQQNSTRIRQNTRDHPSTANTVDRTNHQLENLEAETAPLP
The target in experiment [3] is T1, Kappa-type opioid receptor. The experiment can be described thus: Agonist activity at human kappa opioid receptor stably transfected in CHO cells by [35S]GTPgammaS assay relative to (-)-U50488. The format is functional, cell-based.
Experiment [4] has as its target T1, Kappa-type opioid receptor. The experiment can be described thus: Agonist activity at human kappa opioid receptor stably transfected in CHO cells by [35S]GTP-gamma-S assay. It counts as functional, cell-based.

T1 sequence (P41145 whole entry): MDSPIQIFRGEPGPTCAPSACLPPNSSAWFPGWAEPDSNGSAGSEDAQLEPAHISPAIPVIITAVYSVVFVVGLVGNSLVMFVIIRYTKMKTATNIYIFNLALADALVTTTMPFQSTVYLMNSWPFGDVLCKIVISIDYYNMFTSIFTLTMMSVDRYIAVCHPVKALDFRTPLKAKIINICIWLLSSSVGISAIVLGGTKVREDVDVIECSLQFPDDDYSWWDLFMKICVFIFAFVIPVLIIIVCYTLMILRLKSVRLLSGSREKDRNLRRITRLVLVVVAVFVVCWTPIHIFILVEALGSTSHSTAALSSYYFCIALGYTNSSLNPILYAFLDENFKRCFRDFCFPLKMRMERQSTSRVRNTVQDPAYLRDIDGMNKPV

Broadly, the Ki is the dissociation constant of the complex between target and ligand, obtained from inhibition or displacement. The low end stands for higher affinity, the high end for lower affinity. With `COC(=O)c1coc([C@@H]2C[C@]3(C)[C@H]4C(=O)[C@@H](OC(C)=O)C[C@@H](C(=O)OC)[C@]4(C)CC[C@H]3C(=O)O2)n1`, the Ki is greater than 10 µM in experiment [1], 8.53 µM in experiment [2] and greater than 10 µM on Mu-type opioid receptor.

The term Emax denotes the size of the effect at its maximum, as opposed to the concentration needed. As for `COC(=O)[C@@H]1C[C@H](OC(C)=O)C(=O)[C@H]2[C@@]1(C)CC[C@H]1C(=O)O[C@H](c3ccn(S(=O)(=O)c4ccc(OC)cc4)c3)C[C@]21C`, the Ki in experiment [1] was greater than 10 µM; in experiment [2] it was 1.62 µM; at Mu-type opioid receptor, greater than 10 µM. The compound also displayed an Emax in experiment [3] of 60%. This compound registered an ED50 in experiment [4] of 15.2 µM.

For the compound `COC(=O)[C@@H]1C[C@H](OC(C)=O)C(=O)[C@H]2[C@@]1(C)CC[C@H]1C(=O)O[C@H](c3ccn(S(C)(=O)=O)c3)C[C@]21C`, the Ki in experiment [1] was greater than 10 µM; in experiment [2], 0.84 µM; on Mu-type opioid receptor, greater than 10 µM. Also, the Emax in experiment [3] amounted to 70%. Further, the ED50 in experiment [4] was found to be 3.6 µM.

For `COC(=O)[C@@H]1C[C@H](OC(C)=O)C(=O)[C@H]2[C@@]1(C)CC[C@H]1C(=O)O[C@H](c3ccn(S(=O)(=O)c4ccccc4)c3)C[C@]21C`, the inhibition constant Ki in experiment [1] is greater than 10 µM; in experiment [2] it was 0.41 µM; at Mu-type opioid receptor, greater than 10 µM. Further, the maximal effect (Emax) in experiment [3] stood at 60%. The ED50 in experiment [4] was 9.16 µM.
